From patent publication US6984400B2, “Method of treating restenosis using bisphosphonate nanoparticles” (Yissum Research Development Company of the Hebrew …, priority 1998, dated 2006)

Key:
[1] = system: neointimal formation in balloon-injured rat carotid artery; test: Rat carotid catheter (balloon) injury model of restenosis; assay type: in vivo; conditions: Example 2; 1.5 and 15 mg/kg day -1 and/or day +6; 14 days post injury; FIG. 4
Method: Animals were obtained and housed in the animal facilities of the Faculty of Medicine, The Hebrew University of Jerusalem, conforming to the standards for care and use of laboratory animals of the Hebrew University of Jerusalem. Male rats of Sabra strain weighing 350-420 g were used. The animals were fed standard laboratory chow and tap water ad libitum. All in vivo experiments were conducted under general anaesthesia achieved with 80 mg/kg ketamine and 5 mg/kg xylazine administered IP.
The distal left common and external carotid arteries were exposed through a midline incision in the neck. […]
The slides were examined microscopically by an investigator blinded to the type of the experimental group. Six to eight sections in each slide were evaluated by computerized morphometric analysis and the averaged section data were further used as a representative of a whole slide for comparisons between groups. The residual lumen, the area bounded by the internal elastic lamina (original lumen), and the area circumscribed by the external elastic lamina (“total arterial area”) were measured directly. The degree of neointimal thickening was expressed as the ratio between the area of the neointimal and the original lumen (% stenosis), and as the ratio between the neointimal area to the area of the media (N/M). […]

RAW 264 cells = test: Growth/proliferation of RAW 264 cells in vitro; assay type: cell-based, murine; conditions: FIG. 6; 48 hours after treatment; proliferation in buffer = 100%
Method: The effect of ISA on the growth of RAW 264 cells was determined. RAW 264 cells, which are derived from the murine macrophage cell lines, were plated at 2×10^4 cells per well in 24-well plates and allowed to grow for approximately 24 hours in DMEM. The cells were then treated with various compositions of the ISA drug, specifically, free ISA, the ISA−Ca^+2 salt, and ISA encapsulated in a nanoparticle (“ISA NP”). As discussed supra, the ISA NP contains Ca^+2 to lower the solubility of the bisphosphonate and increase its entrapment efficiency. For comparison purposes, the RAW 264 cells were also treated with blank NP, i.e., nanoparticles with no drug embedded therein. The cells were then analyzed 48 hours after treatment. Analysis included cell counting by Coulter counter and cell viability by tryphan blue exclusion assay.
The effect of ISA compositions on the growth of RAW 264 cells in vitro is illustrated in FIG. 6. The cell proliferation in buffer only was termed as 100%. The data represented is the mean with a ±SD (6≦N≦27).
The following formulations were evaluated: Ca^+2-ISA salt, Ca^+2-ISA salt+PVA, and Ca^+2-ISA adsorbed on the surface of a blank NP. The cell proliferation in the buffer only was termed as 100%. N.B., a lower column represents higher potency.

SMILES: O=P(O)(O)C(Cl)(Cl)P(=O)(O)O [free clodronate in solution, (dichloromethylene) diphosphonic acid]
- mean neointimal formation [1]: marked neointimal formation

SMILES: Nc1nccc[n+]1CC(P(=O)([O-])O)P(=O)(O)O (centres unmarked) [free ISA, 2-(2-aminopyrimidinio) ethylidene-1,1-bisphosphonic acid betaine]
- growth of RAW 264 cells (RAW 264 cells): only a minor effect
